According to US20230416329A1, “A PEPTIDE WITH DISULFIDE BONDS AND INHIBITORY ACTIVITY AGAINST SERINE PROTEASES, DERIVED HYBRID PEPTIDES THEREOF, AND USES THEREOF” (INSTITUTE OF MATERIA MEDICA , CHINESE ACADEMY OF MEDICAL …, priority 2020, published 2023):
Like-named read-outs stand apart in the source and are kept apart here. Bridge positions count the residues as written; N and C are the ends. Square brackets hold non-standard residues; d marks the D form. Peptide text beside a SMILES is read from it. Hyp = O=C(O)[C@@H]1C[C@@H](O)CN1; Nle = CCCC[C@H](N)C(=O)O; Abu = CC[C@H](N)C(=O)O

Molecular target: T1, bovine trypsin (Bos taurus, UniProt P00760)
T1 sequence (P00760 24-246): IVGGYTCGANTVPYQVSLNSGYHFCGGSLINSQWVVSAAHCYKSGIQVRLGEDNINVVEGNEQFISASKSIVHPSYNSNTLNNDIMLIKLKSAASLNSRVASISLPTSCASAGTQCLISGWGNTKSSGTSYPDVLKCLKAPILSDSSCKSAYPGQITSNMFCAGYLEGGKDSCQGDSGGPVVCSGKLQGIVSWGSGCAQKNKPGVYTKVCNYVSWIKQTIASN
Assay: Trypsin inhibitory activity of peptides (BApNA hydrolysis, OD405; IC50, Ki, residual activity)
Type: biochemical
Settings: for Ki: Ki=IC50/(1+S/Km), Km 0.33 mM, read-out: Ki; for IC50: trypsin 50 nM, BApNA 1.22 mM, read-out: IC50
Method in brief: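 Trypsin (50 nM final) preincubated with peptides at 37 °C in 50 mM Tris-HCl pH 7.8, 20 mM CaCl2; BApNA added (1.22 mM final), 260 min at 37 °C, then OD405 read. Residual activity from enzyme-only and substrate-only controls; IC50 fitted and converted to Ki via Ki=IC50/(1+S/Km), Km measured separately for BApNA.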

Row | inhibitory activity against trypsin (in words) | Ki [µM] | IC50 [µM] | Structure (SMILES) | further results
1 | higher trypsin inhibitory activities | 0.01 | 0.05 | CC[C@H](C)[C@@H]1NC(=O)[C@@H]2CCCN2C(=O)[C@@H]2CCCN2C(=O)[C@H]([C@@H](C)CC)NC(=O)[C@H](CO)NC(=O)[C@H](CCCCN)NC(=O)[C@H]([C@@H](C)O)NC(=O)[C@H](C)NC(=O)[C@H](CCCNC(=N)N)NC(=O)[C@H](C)NC(=O)[C@@H](N)CSSC[C@@H](C(=O)N[C@@H](Cc2ccccc2)C(=O)O)NC1=O [BT67] (H-CARATKSIPPICF-OH; disulfide 1-12) | inhibitory activity against trypsin (in words) (listed as SEQ ID NO: 67): excellent trypsin inhibitory activities; Residual trypsin activity (peptide 0.000098 μM): 107.0 ± 5.5%; Residual trypsin activity (peptide 0.00098 μM): 104.4 ± 3.9%; Residual trypsin activity (peptide 0.0098 μM): 102.0 ± 2.4%; Residual trypsin activity (peptide 0.0488 μM): 49.6 ± 2.8%; Residual trypsin activity (peptide 0.0585 μM): 39.9 ± 1.7%; Residual trypsin activity (peptide 0.07317 μM): 8.1 ± 2.5%; Residual trypsin activity (peptide 0.098 μM): 1.5 ± 0.3%; Residual trypsin activity (peptide 0.98 μM): 0.1 ± 0.2%; Residual trypsin activity (peptide 9.76 μM): 0.1 ± 0.1%
2 | excellent trypsin inhibitory activities | 0.01 | 0.06 | CC[C@H](C)[C@@H]1NC(=O)[C@@H]2CCCN2C(=O)[C@@H]2C[C@@H](O)CN2C(=O)[C@H]([C@@H](C)CC)NC(=O)[C@H](CO)NC(=O)[C@H](CCCCN)NC(=O)[C@H]([C@@H](C)O)NC(=O)[C@H](C)NC(=O)[C@H](CCCNC(=N)N)NC(=O)[C@H](C)NC(=O)[C@@H](N)CSSC[C@@H](C(=O)N[C@@H](Cc2ccccc2)C(=O)O)NC1=O [BT69] (H-CARATKSI[Hyp]PICF-OH; disulfide 1-12; C-terminus assumed) | –
3 | excellent trypsin inhibitory activities | 0.03 | – | CC[C@H](C)[C@@H]1NC(=O)[C@@H]2C[C@@H](O)CN2C(=O)[C@@H]2CCCN2C(=O)[C@H]([C@@H](C)CC)NC(=O)[C@H](CO)NC(=O)[C@H](CCCCN)NC(=O)[C@H]([C@@H](C)O)NC(=O)[C@H](C)NC(=O)[C@H](CCCNC(=N)N)NC(=O)[C@H](C)NC(=O)[C@@H](N)CSSC[C@@H](C(=O)N[C@@H](Cc2ccccc2)C(=O)O)NC1=O [BT70] (H-CARATKSIP[Hyp]ICF-OH; disulfide 1-12; C-terminus assumed) | –
4 | excellent trypsin inhibitory activities | 0.02 | 0.11 | CC[C@H](C)[C@@H]1NC(=O)[C@@H]2CCCN2C(=O)[C@@H]2CCCN2C(=O)[C@H]([C@@H](C)CC)NC(=O)[C@H](CO)NC(=O)[C@H](CCCCN)NC(=O)[C@H]([C@@H](C)O)NC(=O)[C@H](C)NC(=O)[C@H](CCCNC(=N)N)NC(=O)[C@H](C(C)C)NC(=O)[C@@H](N)CSSC[C@@H](C(=O)N[C@@H](Cc2ccccc2)C(=O)O)NC1=O [BT71] (H-CVRATKSIPPICF-OH; disulfide 1-12; N-terminus and C-terminus assumed) | –
5 | – | 0.03 | 0.13 | CC[C@H](C)[C@@H]1NC(=O)[C@@H]2CCCN2C(=O)[C@@H]2CCCN2C(=O)[C@H]([C@@H](C)CC)NC(=O)[C@H](CO)NC(=O)[C@H](CCCCN)NC(=O)[C@H]([C@@H](C)O)NC(=O)[C@H](C)NC(=O)[C@H](CCCNC(=N)N)NC(=O)[C@H](CC(C)C)NC(=O)[C@@H](N)CSSC[C@@H](C(=O)N[C@@H](Cc2ccccc2)C(=O)O)NC1=O [BT72] (H-CLRATKSIPPICF-OH; disulfide 1-12; N-terminus and C-terminus assumed) | –
6 | – | 0.03 | 0.12 | CC[C@H](C)[C@@H]1NC(=O)[C@@H](N)CSSC[C@@H](C(=O)N[C@@H](Cc2ccccc2)C(=O)O)NC(=O)[C@H]([C@@H](C)CC)NC(=O)[C@@H]2CCCN2C(=O)[C@@H]2CCCN2C(=O)[C@H]([C@@H](C)CC)NC(=O)[C@H](CO)NC(=O)[C@H](CCCCN)NC(=O)[C@H]([C@@H](C)O)NC(=O)[C@H](C)NC(=O)[C@H](CCCNC(=N)N)NC1=O [BT73] (H-CIRATKSIPPICF-OH; disulfide 1-12; N-terminus and C-terminus assumed) | –
7 | excellent trypsin inhibitory activities | 0.02 | 0.09 | CC[C@@H]1NC(=O)[C@@H](N)CSSC[C@@H](C(=O)N[C@@H](Cc2ccccc2)C(=O)O)NC(=O)[C@H]([C@@H](C)CC)NC(=O)[C@@H]2CCCN2C(=O)[C@@H]2CCCN2C(=O)[C@H]([C@@H](C)CC)NC(=O)[C@H](CO)NC(=O)[C@H](CCCCN)NC(=O)[C@H]([C@@H](C)O)NC(=O)[C@H](C)NC(=O)[C@H](CCCNC(=N)N)NC1=O [BT74] (H-C[Abu]RATKSIPPICF-OH; disulfide 1-12; N-terminus and C-terminus assumed) | –
8 | excellent trypsin inhibitory activities | 0.0085 | 0.04 | CC[C@H](C)[C@@H]1NC(=O)[C@@H]2CCCN2C(=O)[C@@H]2CCCN2C(=O)[C@H]([C@@H](C)CC)NC(=O)[C@H](CO)NC(=O)[C@H](CCCCN)NC(=O)[C@H]([C@@H](C)O)NC(=O)[C@H](C)NC(=O)[C@H](CCCNC(=N)N)NC(=O)[C@H](CO)NC(=O)[C@@H](N)CSSC[C@@H](C(=O)N[C@@H](Cc2ccccc2)C(=O)O)NC1=O [BT75] (H-CSRATKSIPPICF-OH; disulfide 1-12; N-terminus and C-terminus assumed) | –
9 | excellent trypsin inhibitory activities | 0.01 | 0.05 | CC[C@H](C)[C@@H]1NC(=O)[C@@H]2CCCN2C(=O)[C@@H]2CCCN2C(=O)[C@H]([C@@H](C)CC)NC(=O)[C@H](CO)NC(=O)[C@H](CCCCN)NC(=O)[C@H]([C@@H](C)O)NC(=O)[C@H](C)NC(=O)[C@H](CCCNC(=N)N)NC(=O)[C@H](CCCNC(=N)N)NC(=O)[C@@H](N)CSSC[C@@H](C(=O)N[C@@H](Cc2ccccc2)C(=O)O)NC1=O [BT76] (H-CRRATKSIPPICF-OH; disulfide 1-12; N-terminus and C-terminus assumed) | –
10 | excellent trypsin inhibitory activities | 0.0085 | 0.04 | CC[C@H](C)[C@@H]1NC(=O)[C@@H]2CCCN2C(=O)[C@@H]2CCCN2C(=O)[C@H]([C@@H](C)CC)NC(=O)[C@H](CO)NC(=O)[C@H](CCCCN)NC(=O)[C@H]([C@@H](C)O)NC(=O)[C@H](C)NC(=O)[C@H](CCCNC(=N)N)NC(=O)[C@H](CCCCN)NC(=O)[C@@H](N)CSSC[C@@H](C(=O)N[C@@H](Cc2ccccc2)C(=O)O)NC1=O [BT77] (H-CKRATKSIPPICF-OH; disulfide 1-12; N-terminus and C-terminus assumed) | –
11 | excellent trypsin inhibitory activities | – | 0.03 | CC[C@H](C)[C@@H]1NC(=O)[C@@H]2CCCN2C(=O)[C@@H]2CCCN2C(=O)[C@H]([C@@H](C)CC)NC(=O)[C@H](CO)NC(=O)[C@H](CCCCN)NC(=O)[C@H]([C@@H](C)O)NC(=O)[C@H](C)NC(=O)[C@H](CCCNC(=N)N)NC(=O)[C@H](CCC(=O)O)NC(=O)[C@@H](N)CSSC[C@@H](C(=O)N[C@@H](Cc2ccccc2)C(=O)O)NC1=O [BT78] (H-CERATKSIPPICF-OH; disulfide 1-12; N-terminus and C-terminus assumed) | –
12 | excellent trypsin inhibitory activities | 0.01 | 0.05 | CC[C@H](C)[C@@H]1NC(=O)[C@@H]2CCCN2C(=O)[C@@H]2CCCN2C(=O)[C@H]([C@@H](C)CC)NC(=O)[C@H](CO)NC(=O)[C@H](CCCCN)NC(=O)[C@H]([C@@H](C)O)NC(=O)[C@H](C)NC(=O)[C@H](CCCNC(=N)N)NC(=O)[C@H](CCC(N)=O)NC(=O)[C@@H](N)CSSC[C@@H](C(=O)N[C@@H](Cc2ccccc2)C(=O)O)NC1=O [BT79] (H-CQRATKSIPPICF-OH; disulfide 1-12; N-terminus and C-terminus assumed) | –
13 | – | 0.02 | – | CCCC[C@@H]1NC(=O)[C@@H](N)CSSC[C@@H](C(=O)N[C@@H](Cc2ccccc2)C(=O)O)NC(=O)[C@H]([C@@H](C)CC)NC(=O)[C@@H]2CCCN2C(=O)[C@@H]2CCCN2C(=O)[C@H]([C@@H](C)CC)NC(=O)[C@H](CO)NC(=O)[C@H](CCCCN)NC(=O)[C@H]([C@@H](C)O)NC(=O)[C@H](C)NC(=O)[C@H](CCCNC(=N)N)NC1=O [BT80] (H-C[Nle]RATKSIPPICF-OH; disulfide 1-12; N-terminus and C-terminus assumed) | –
